The values that follow come from US7144887B2, “Substituted 1,2,3-triazolo[1,5-a]quinazolines for enhancing cognition” (Merck Sharp & Dohme Ltd., priority 1999, dated 2006).

The conditions of series [1]: in vivo; cited from earlier work.

Take `Cc1cc(-c2nnn3c2nc(N2CCN(c4ccccc4)C(=O)C2)c2ccccc23)no1`: the melting point was 263 °C (dec.).

Regarding `Cc1cc(-c2nnn3c2nc(N2CCN(c4cccnc4)C(=O)C2)c2ccccc23)no1`, the melting point is 247 °C (dec.).

With `Cc1cc(-c2nnn3c2nc(N2CCN(c4ccccn4)C(=O)C2)c2ccccc23)no1`, the melting point was 266 °C (dec.).

Consider `COC(=O)c1cc2c(cn1)[nH]c1ccccc12` [β-CCM], for which the “spatial learning in the Morris watermaze” value in series [1] was “enhanced spatial learning”.
